These results are taken from patent publication US20040014024A1, “Screening assay for antagonists of FGFR-mediated malignant cell transformation and tumor formation” (priority 1999, published 2004).

This assay deals with RCJ cells. In words: Tumor formation in nude mice injected with RCJ cells, doxycycline in drinking water. The class given is in vivo. Particulars: doxycycline 25 μg/ml in drinking water, up to 60 days. The method, then:
6-8-Week old nude mice (BalbC/Nu) were injected subcutaneously with equivalent number of parental RCJ or L8 cells or FGFR3 expressing cell lines and were followed for tumor formation for up to 60 days after injections. Inhibition of FGFR expression in vivo was done by adding 25 μg/ml doxycycline into the drinking water of mice which had previously received the RCJ cell clones by injection. Nude mice were injected subcutaneously with equivalent numbers of parental RCJ cells (FIGS. 9 A-C, C2, squares) or wild type or mutant FGFR3 expressing RCJ cell lines (W11, circles in FIG. 9A, M15, triangles in FIG. 9A, W2, triangles in FIG. 9B, M16, circles in FIG. 9B) and tumor surface areas were evaluated for up to 60 days after injection (ordinates). […] Triangles, C2 (control) clone plus doxycycline, circles, W11 clone, filled squares, W11 clone plus doxycycline Doxycycline was used in animals because the former is a potent high affinity derivative of tetracycline. […] The inhibition of tumor formation of RCJ cells was highly correlated with the expression levels of FGFR3. In order to determine whether inhibition of tumor formation reflects the expression level of FGFR3, we have performed an assay where we tried to suppress the expression of FGFR3 in vivo by the addition of doxycycline to the drinking water of injected mice.

Each structure is given as a SMILES string.

On to `C[C@H]1c2cccc(O)c2C(=O)C2=C(O)[C@]3(O)C(=O)C(C(N)=O)=C(O)[C@@H](N(C)C)[C@@H]3[C@@H](O)[C@@H]21` [doxycycline], for which the “effect on tumor formation, mice injected with the parental RCJ line (C2)” value is given as “no significant effect”.
